The test system of data set [1] is Carrageenan-induced rat paw edema. The data set can be described thus: Carrageenan-induced rat paw edema (anti-inflammatory efficacy). In kind it is in vivo. Particulars: rats, 3, 5 and 7 hours post-carrageenan, p<0.05, FIG. 3. As for the experimental part: Efficacy of DP-DFC lipid derivatives was tested in vivo in the model system of rodent carrageenan edema test.
Carrageenan-induced rat paw edema is a widely employed animal model for acute inflammation. The objective of the study is to assess the potential prophylactic effects of DP-DCF derivatives on the prevention of inflammatory swelling and, in particular, to compare the efficacy parameters with those obtained for diclofenac. The experimental set-up was as follows: Male Sprague-Dawley rats weighing 120–180 g (supplied by Harlan Laboratories Breeding Center, Israel) were intraperitoneally (i.p.) injected with drug or prodrug one hour prior to the induction of inflammation with carrageenan. Animals injected with vehicle alone served as control group.
Paw edema was induced by a single sub-plantar injection of 0.1 ml 2% carrageenan in physiological saline, into test animals' right hind paws. Just prior to paw edema induction, the paw thickness of the test animals' right hind paws was measured in triplicate using a plethysmograph and micrometer to provide a baseline. At 3, 5 and 7 hours post carrageenan injection, the right paw thickness was measured in the same manner as before.
Potential anti-inflammatory activity in suppressing carrageenan-induced paw oedema was assessed by the relative differences in paw volumes between pre- and post-carrageenan measurements, expressed as (%) change. […]

In data set [2] the test system is global forebrain ischemia. The data set can be described thus: Global forebrain ischemia model, serum neuron specific enolase (NSE). The data set is classed as in vivo, Mongolian gerbils. The settings on record: gerbils. As for the experimental part: Neuroprotective effects of compounds of the invention were examined in the global forebrain ischemic model system in Mongolian gerbils.
Male Mongolian gerbils 60–70 g (Charles River Laboratories, USA) were used in this study. Global forebrain ischemia was induced by transient occlusion of both carotid arteries for 10 minutes, using arterial clips. The tested compounds were orally administered to the animals, 7–8 animals per group, by either one of two schemes: • a) single dose administration of commercial diclofenac (Sigma, USA; 10 mg/kg) or dose-equivalent of DP-DCF; Z=5 (30 mg/kg). The administration was per os (p.o.) two hours before induction of ischemia (FIG. 4); • b) multiple dosing of DP-DCF; Z=5 (30 mg/kg) orally administered daily for 5 days beginning four days prior to induction of ischemia. (FIG. 5).
In both schemes, animals treated with vehicle alone served as control groups. Blood samples were withdrawn from eye sinuses of the animals 24 hours after the onset of ischemia and serum levels of neuron specific enolase (NSE) were determined by radioimmunoassay using NSE kit (Pharmatope Ltd., Israel).
It has been shown that serum levels of NSE are elevated in the event of ischemic insult. Thus, serum level of NSE may serve as a marker for the degree of neuronal damage (Barone et al. (1993) Brain Res. 623: 77–82).

A short description of data set [3]: Octanol/saline distribution (partition coefficient Pc), shake-flask technique.
Protocol: In addition, the partition coefficient (Pc) values for these compounds, i.e their distribution ratios between the organic and the aqueous phases (octanol/saline), were calculated.
The distribution of the compounds between the organic and the aqueous phases was measured by the shake-flask technique. Five milliliters of octanol containing about 3 mg of the studied compound were mixed with 5 ml saline. The mixture was shaken overnight at 22° C. before the octanol and saline phases were separated. One ml from each phase was dissolved into an appropriate volume of ethanol so that the optical absorption of the obtained solution is in range of 0.1 to 1.0.
The coefficient Pc is calculated by the following ratio:
[formula] where Aoct is the optical absorption, at λmax, of the ethanol solution in which one ml of octanol phase is dissolved, V1 is the volume of this ethanol solution and l1 is the width (cm) of the cuvette used for measurement of the optical absorption.
Asal is the optical absorption, at λmax, of the ethanol solution in which the one ml of saline phase is dissolved, V2 is the volume of this ethanol solution and l2 is the width (cm) of the cuvette used for measurement of the optical absorption.
A short description of data set [4]: Solubility measurements of lipid derivatives in water, saline, ethanol and octanol. Particulars: 22 °C.
Protocol: The solubility of several lipid derivatives of diclofenac, indomethacin, ibuprofen, naproxen and 6-methoxy-2-naphthylacetic acid was determined at room temperature (22° C.) in aqueous solutions (water and saline) and in organic solutions (ethanol and octanol). In addition, the partition coefficient (Pc) values for these compounds, i.e their distribution ratios between the organic and the aqueous phases (octanol/saline), were calculated.
A short description of data set [5]: In vitro cleavage of DP-DFC to free diclofenac in rat liver homogenate. The data set is classed as in vitro ADME. Particulars: 37° C., up to 6 hours. Here is the method:
(§1) The ability of the compounds of the invention to be cleaved to yield free diclofenac, was studied in vitro in homogenates of rat brain and liver. Two compounds were tested: the prodrug 1-Stearoyl-2-{4-[2-(2,6-dichloroanilino)-phenylacetamido]butanoyl}-sn-glycero-3-phosphocholine (DP-DFC; Z=3), and the compound 1-Stearoyl-2-{3-[2-(2,6-dichloroanilino)-phenylacetamido]propanoyl}-sn-glycero-3-phosphatidylcholine (DP-DFC; Z=2), comprising, respectively, a bridging group having a total of 4 and 3 carbon atoms.
(§2) Liver and brain were surgically removed, under pentobarbitone anesthesia, from male Sabra rats weighing 250–280 g. About 1–1.5 g samples from each tissue were homogenized in PBS pH=7.4 (Dulbecco) at a ratio of 1:9 w/v of tissue to buffer.
(§3) DP-DFC was added to each homogenate to a final concentration of 40 μg/ml. The mixtures were incubated at 37° C. in shaking for 1, 2, 3 and 6 hours, and then were placed on ice to stop the reaction.
(§4) The amounts of free diclofenac in 1 ml samples from either the brain or liver homogenates were determined by reverse phase HPLC assay. The amount of protein in each sample was assayed by the Lowry method.
(§5) The result for each time point represents the average of five repetitions using tissues from five individual animals.
(§6) In order to evaluate the effect of temperature on the reaction, a parallel set of incubations was carried out at 4° C.

A short description of data set [6]: In vitro cleavage of DP-DFC to free diclofenac in rat brain homogenate. The data set is classed as in vitro ADME. The settings on record: for Cleavage of diclofenac from its lipid conjugate: brain homogenate, 37° C., up to 6 hours. As for the experimental part:
as §1, §2, §3, §4, §5, §6

Data set [7] in a line: In vivo sub-chronic toxicity study: gastro-toxicity scores. Set-up: species or system rat. Particulars: rats, 10 mg/kg p.o. daily, day 14; scores 0 (no visible lesions) to 5 (perforation); FIG. 2.
Protocol: Male Sprague-Dawley rats weighing 250–280 g were kept under standard conditions for an acclimatization period of one week with food and water supplied ad lib. […] Animals treated with the vehicle solution alone serve as control group.
Toxicity scores were assessed at the end of the 14-day multiple p.o drug administration period. On day 14, the animals were anesthetized 4 hours after administration of the test materials by i.p. injection of 0.5 ml pentobarbitone sodium (200 mg/ml) and laparatomy was preformed to remove the rat's stomach with approximately 15 mm of the associated duodenum. The stomachs were cut open along the small curvature and washed, with gentle rubbing, under running water. A semi-quantitative assessment of the gastric damage was determined by assigning scores ranging from 0 to 5. The scores indicate as follows: (0) No macroscopically visible lesions; (1) Hyperemia; (2) One-two slight lesions; (3) More than 2 slight lesions; (4) Severe lesions; (5) Perforation.
Data set [8] in a line: In vivo sub-chronic toxicity study: body weight changes. Particulars: rats, 10 mg/kg p.o. gavage daily for 14 days; FIG. 1. Set-up: species or system rat. As for the experimental part:
DP-DCF compounds were evaluated for sub-chronic toxicity during 14-day drug administration period by following two criteria: a) monitoring body weight changes, and b) evaluating gastro-toxicity scores.
Male Sprague-Dawley rats weighing 250–280 g were kept under standard conditions for an acclimatization period of one week with food and water supplied ad lib. The rats were administered with commercial diclofenac (DCF; Sigma, USA) or with equivalent doses of 1-Stearoyl-2-{4-[2-(2,6-dichloroanilino)-phenylacetamido]butanoyl}-sn-glycero-3-phosphocholine (DP-DCF; Z=3) or 1-Stearoyl-2-{6-[2-(2,6-dichloroanilino)-phenylacetamido]hexanoyl}-sn-glycero-3-phosphocholine (DP-DCF; Z=5), p.o. by gavage daily for 14 days. Animals treated with the vehicle solution alone serve as control group.
The treatment groups were as follows:
A major sign of general toxicity is decreasing of body weight. Male Sabra rats were treated as described above. The rats were weighed prior to dosing at the beginning of the experiment (day zero) and at the 5th, 9th and 13th day of the treatment.

Values after ≈ are worked out from the molar mass of the structure shown.

As usually defined, the logD is lipophilicity at a set pH, counting ionised and neutral species. Lower therefore signals lower lipophilicity. As usually defined, the solubility is the concentration that dissolves in the medium under given conditions.

In the case of “1-Stearoyl-2-{6-[2-(2,6-dichloroanilino)phenylacetamido]hexanoy}-sn-glycero-3-phosphocholine [DCF n=5]”, the “Anti-inflammatory activity: suppression of carrageenan-induced increase of paw volume” value in data set [1] (30 mg/kg i.p. one hour prior to carrageenan) is “statistically significant and consistent anti-inflammatory activity”. Further, the “Serum NSE level 24 hours after ischemia” value is given as “significant reduction in NSE level” in data set [2] (30 mg/kg orally daily for 5 days beginning four days prior to ischemia, p<0.05, FIG. 5) and “reduced in comparison to NSE level in serum of animals that were treated with DCF or vehicle alone” in data set [2] (single dose 30 mg/kg p.o. two hours before ischemia, FIG. 4).

For the compound `CCCCCCCCCCCCCCCCCC(=O)OC[C@H](COP(=O)([O-])OCC[N+](C)(C)C)OC(=O)CCNC(=O)Cc1ccccc1Nc1c(Cl)cccc1Cl` [DCF n=2, 1-Stearoyl-2-{3-[2-(2,6-dichloroanilino)phenylacetamido]propanoyl}-sn-glycero-3-phosphocholine], in data set [3], the logD was determined as 2.8 ± 0.1. Besides, the solubility worked out at 2 µg/mL (≈ 2.29 µM) in data set [4] (saline, saline or isotonic) and 3 µg/mL (≈ 3.44 µM) in data set [4] (water). Also, the “Cleavage of diclofenac from its lipid conjugate” value in data set [5] and in data set [6] was “not” each time.

As for `CCCCCCCCCCCCCCCCCC(=O)OC[C@H](COP(=O)([O-])OCC[N+](C)(C)C)OC(=O)CCCNC(=O)Cc1ccccc1Nc1c(Cl)cccc1Cl` [DCF n=3, 1-Stearoyl-2-{4-[2-(2,6-dichloroanilino)phenylacetamido]butanoyl}-sn-glycero-3-phosphocholine], in data set [3] (22° C., shake-flask), the “log Pc (octanol/saline distribution coefficient)” value is reported as “≧3”. The solubility in data set [4] (saline, saline or isotonic) came to 2 µg/mL (≈ 2.25 µM); in data set [4] (water), 2 µg/mL (≈ 2.25 µM). Moreover, the “Cleavage of diclofenac from its lipid conjugate” value in data set [5] and in data set [6] was “significant cleavage” in each case. In data set [6] (parallel set of incubations in homogenates at 4° C. (data not shown)), the “Cleavage of prodrug to DFC on cooling to 4° C.” value is listed as “completely inhibited”.

The compound `O=C(O)Cc1ccccc1Nc1c(Cl)cccc1Cl` [DCF, [o-(2,6-dichloroanilino)phenyl]acetic acid] yielded a Gastro-toxicity score in data set [7] of 4. Also, the “Anti-inflammatory activity: suppression of carrageenan-induced increase of paw volume” value in data set [1] (10 mg/kg i.p. one hour prior to carrageenan) is “statistically significant and consistent anti-inflammatory activity”. The “Body weight changes (%)” value in data set [8] was “maximal decrease of body weight on day 5”.

The record behind these values is patent publication US7173018B2, “Phospholipid derivatives of non-steroidal anti-inflammatory drugs” (D-Pharm, Ltd., priority 1998, dated 2007).
